# From ChEMBL document CHEMBL3091293, “The synthesis and biodistribution of [(11)C]metformin as a PET probe to study hepatobiliary transport mediated by the multi-drug and toxin extrusion transporter 1 (MATE1) in vivo” (Bioorg Med Chem, 2013)
# Key:
# Assay type in all cases: ADME, organism-based; call rule not given here
# [1] = Metabolic stability in urine of mouse at 5 +/- 2.3 MBq/kg, iv measured until 30 to 60 mins by HPLC analysis in presence of MATE1 inhibitor pyrimethamine; details: in vivo
# [2] = Drug uptake in urinary bladder of ddY mouse at 127 +/- 35 MBq/kg, iv measured up to 4.5 mins by microPET image analysis in presence of MATE1 inhibitor pyrimethamine; details: in vivo, 0.075 h
# Mus musculus [3] = assay: Biodistribution in remaining body parts of ddY mouse at 5.6 +/- 2.1 MBq, iv measured per gram of tissue at 60 mins by gamma-ray counting analysis; details: in vivo, 1 h
# Kidney [4] = assay: Biodistribution in kidney of ddY mouse at 14.6 +/- 2.1 MBq, iv measured per gram of tissue at 27.5 mins by PET image analysis; details: in vivo
# Liver [5] = assay: Biodistribution in liver of ddY mouse at 14.6 +/- 2.1 MBq, iv measured per gram of tissue at 27.5 mins by PET image analysis; details: in vivo
# Mus musculus [6] = assay: Biodistribution in urinary bladder of ddY mouse at 14.6 +/- 2.1 MBq, iv measured per gram of tissue at 14 mins by PET image analysis; details: in vivo
# Mus musculus [7] = assay: Biodistribution in remaining body parts of ddY mouse at 14.6 +/- 2.1 MBq, iv measured per gram of tissue at 5 mins by PET image analysis; details: in vivo
# Mus musculus [8] = assay: Biodistribution in urinary bladder of ddY mouse at 14.6 +/- 2.1 MBq, iv measured per gram of tissue at 5 mins by PET image analysis; details: in vivo
# Kidney [9] = assay: Biodistribution in kidney of ddY mouse at 14.6 +/- 2.1 MBq, iv measured per gram of tissue at 5 mins by PET image analysis; details: in vivo
# Mus musculus [10] = assay: Biodistribution in small intestine wall of ddY mouse at 5.6 +/- 2.1 MBq, iv measured per gram of tissue at 90 mins by gamma-ray counting analysis; details: in vivo, 1.5 h
# Thyroid gland = assay: Biodistribution in thyroid of ddY mouse at 5.6 +/- 2.1 MBq, iv measured per gram of tissue at 60 mins by gamma-ray counting analysis; details: in vivo, 1 h
# Mus musculus [11] = assay: Biodistribution in large intestine wall of ddY mouse at 5.6 +/- 2.1 MBq, iv measured per gram of tissue at 60 mins by gamma-ray counting analysis; details: in vivo, 1 h
# Mus musculus [12] = assay: Biodistribution in heart wall of ddY mouse at 5.6 +/- 2.1 MBq, iv measured per gram of tissue at 60 mins by gamma-ray counting analysis; details: in vivo, 1 h
# Mus musculus [13] = assay: Biodistribution in urinary bladder/urine of ddY mouse at 5.6 +/- 2.1 MBq, iv measured per gram of tissue at 45 mins by gamma-ray counting analysis; details: in vivo, 0.75 h
# Mus musculus [14] = assay: Biodistribution in heart wall of ddY mouse at 5.6 +/- 2.1 MBq, iv measured per gram of tissue at 45 mins by gamma-ray counting analysis; details: in vivo, 0.75 h
# Pancreas = assay: Biodistribution in pancreas of ddY mouse at 5.6 +/- 2.1 MBq, iv measured per gram of tissue at 30 mins by gamma-ray counting analysis; details: in vivo, 0.5 h
# Mus musculus [15] = assay: Biodistribution in large intestine wall of ddY mouse at 5.6 +/- 2.1 MBq, iv measured per gram of tissue at 30 mins by gamma-ray counting analysis; details: in vivo, 0.5 h
# Liver [16] = assay: Biodistribution in liver of ddY mouse at 5.6 +/- 2.1 MBq, iv measured per gram of tissue at 15 mins by gamma-ray counting analysis; details: in vivo, 0.25 h
smiles,measurement,setting,value
CN([11CH3])C(=N)NC(=N)N,Stability,[1],Stable
same,Drug uptake,[2],Active
same,Drug uptake,Mus musculus [3],23.827 %ID
same,Drug uptake,Kidney [4],4.394 %ID
same,Drug uptake,Liver [5],1.033 %ID
same,Drug uptake,Mus musculus [6],56.419 %ID
same,Drug uptake,Mus musculus [7],51.908 %ID
same,Drug uptake,Mus musculus [8],37.19 %ID
same,Drug uptake,Kidney [9],6.576 %ID
same,Drug uptake,Mus musculus [10],1.604 %ID
same,Drug uptake,Thyroid gland,0.005 %ID
same,Drug uptake,Mus musculus [11],0.395 %ID
same,Drug uptake,Mus musculus [12],0.038 %ID
same,Drug uptake,Mus musculus [13],78.906 %ID
same,Drug uptake,Mus musculus [14],0.029 %ID
same,Drug uptake,Pancreas,0.405 %ID
same,Drug uptake,Mus musculus [15],0.352 %ID
same,Drug uptake,Liver [16],3.817 %ID
